Reference: ChEMBL document CHEMBL1201862, “PubChem BioAssay data set” (2004)
Values joined by “and” are separate entries in the source; they are usually repeats but may differ in a detail not shown here. Identical values can stand only once.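 1) Cells in 96-well plates. 2) Compound, 48 h, 5 concentrations. 3) Linear interpolation between surrounding doses. 4) Unreached endpoint = highest concentration. GI50: concentration for 50% inhibition of growth.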 Active and inactive are the calls of the source. Cut-off read from the data, not from the text of the source: active = GI50 up to about 1.1 µM and inactive = higher.

Tests used:
Assay in all cases: NCI-60 cell line screen, 48 h
A498 = test system: A498
ACHN = test system: ACHN
CAKI-1 = test system: CAKI-1
HCC 2998 = test system: HCC 2998
IGROV-1 = test system: IGROV-1
KM-20L2 = test system: KM-20L2
NCI-H23 = test system: NCI-H23
NCI-H522 = test system: NCI-H522
OVCAR-3 = test system: OVCAR-3
OVCAR-4 = test system: OVCAR-4
SF-295 = test system: SF-295
SK-OV-3 = test system: SK-OV-3
SNB-19 = test system: SNB-19
UACC-62 = test system: UACC-62
HOP-92 = test system: HOP-92
U-251 = test system: U-251
DU-145 = test system: DU-145
MDA-MB-231 = test system: MDA-MB-231
MDA-MB-435 = test system: MDA-MB-435
NCI/ADR-RES = test system: NCI/ADR-RES

| SMILES | GI50 (A498) | GI50 (ACHN) | GI50 (CAKI-1) | GI50 (HCC 2998) | GI50 (IGROV-1) | GI50 (KM-20L2) | GI50 (NCI-H23) | GI50 (NCI-H522) | GI50 (OVCAR-3) | GI50 (OVCAR-4) | GI50 (SF-295) | GI50 (SK-OV-3) | GI50 (SNB-19) | GI50 (UACC-62) | GI50 (HOP-92) | GI50 (U-251) | GI50 (DU-145) | GI50 (MDA-MB-231) | GI50 (MDA-MB-435) | GI50 (NCI/ADR-RES) |
| --- | --- | --- | --- | --- | --- | --- | --- | --- | --- | --- | --- | --- | --- | --- | --- | --- | --- | --- | --- | --- |
| Clc1ccc(Cc2nc3ccccc3s2)c(Cl)c1 | 17.2 µM (inactive) | 17.5 µM (inactive) | 17.4 µM (inactive) | 18.6 µM (inactive) | 14.8 µM (inactive) | 25.6 µM (inactive) | > 10 µM (inactive) | 15.7 µM (inactive) | 18.6 µM (inactive) | 13.2 µM (inactive) | 16.8 µM (inactive) | 28.2 µM (inactive) | 24.3 µM (inactive) | 14.1 µM (inactive) | – | – | – | – | – | – |
| CCCCOCN/C(N)=N/C#N | > 100 µM (inactive) | > 100 µM (inactive) | > 100 µM (inactive) | > 100 µM (inactive) | > 100 µM (inactive) | > 100 µM (inactive) | > 100 µM (inactive) | > 100 µM (inactive) | > 100 µM (inactive) | 64.1 µM (inactive) | > 100 µM (inactive) | > 100 µM (inactive) | > 100 µM (inactive) | > 100 µM (inactive) | > 100 µM (inactive) | > 100 µM (inactive) | – | – | – | – |
| CC(C)OCN1COCN/C1=N/C#N | > 100 µM (inactive) | > 100 µM (inactive) | > 100 µM (inactive) | > 100 µM (inactive) | > 100 µM (inactive) | > 100 µM (inactive) | > 100 µM (inactive) | > 100 µM (inactive) | > 100 µM (inactive) | > 100 µM (inactive) | > 100 µM (inactive) | > 100 µM (inactive) | > 100 µM (inactive) | > 100 µM (inactive) | > 100 µM (inactive) | 42.2 µM (inactive) | – | – | – | – |
| COc1ccc(-c2cn3ccsc3n2)cc1 | – | > 100 µM (inactive) | > 100 µM (inactive) | > 100 µM (inactive) | > 100 µM (inactive) | 57.8 µM (inactive) | > 100 µM (inactive) | 65.3 µM (inactive) | > 100 µM (inactive) | > 100 µM (inactive) | > 100 µM (inactive) | > 100 µM (inactive) | > 100 µM (inactive) | > 100 µM (inactive) | > 100 µM (inactive) | 75.2 µM (inactive) | – | – | – | – |
| CCOC(=O)[C@@]12C(C)=CC(=O)O[C@]1(C)C1C(=O)NC(=O)C12 (some centres not stated) | > 100 µM (inactive) | > 100 µM (inactive) | – | > 100 µM (inactive) | > 100 µM (inactive) | > 100 µM (inactive) | > 100 µM (inactive) | – | 34.4 µM (inactive) | > 100 µM (inactive) | > 100 µM (inactive) | > 100 µM (inactive) | > 100 µM (inactive) | 17.4 µM (inactive) | 22.1 µM (inactive) | > 100 µM (inactive) | – | – | – | – |
| O=C(/C=C(\O)C(=O)O)/C=C(\O)c1ccccc1 | > 4.65 µM (inactive) | > 4.65 µM (inactive) | > 4.65 µM (inactive) | – | > 4.65 µM (inactive) | > 4.65 µM (inactive) | – | – | > 4.65 µM (inactive) | > 4.65 µM (inactive) | > 4.65 µM (inactive) | > 4.65 µM (inactive) | > 4.65 µM (inactive) | > 4.65 µM (inactive) | – | > 4.65 µM (inactive) | – | – | – | – |
| Cc1nn(C)c(=O)c2nn(-c3ccccc3)c(C)c12 | > 100 µM (inactive) | > 100 µM (inactive) | > 100 µM (inactive) | > 100 µM (inactive) | > 100 µM (inactive) | > 100 µM (inactive) | > 100 µM (inactive) | > 100 µM (inactive) | > 100 µM (inactive) | > 100 µM (inactive) | > 100 µM (inactive) | > 100 µM (inactive) | > 100 µM (inactive) | > 100 µM (inactive) | – | > 100 µM (inactive) | – | – | – | – |
| COc1cc(-c2oc3c(OC)c(OC)cc(O)c3c(=O)c2OC)ccc1O [TERNATIN] | – | – | 7 µM (inactive) | – | 4.89 µM (inactive) and 4.1 µM (inactive) | > 100 µM (inactive) | – | – | 11.7 µM (inactive) | – | – | 1.17 µM (inactive) and 2.19 µM (inactive) | 41.6 µM (inactive) and 49.8 µM (inactive) | 8.39 µM (inactive) and 4.7 µM (inactive) | – | – | 7.43 µM (inactive) | 15.2 µM (inactive) | 10.6 µM (inactive) | 38.8 µM (inactive) |
| c1ccc(C2N3CCCCC3[C@@H]3c4[nH]c5ccccc5c4CCN23)nc1 (some centres not stated) | > 100 µM (inactive) | > 100 µM (inactive) | > 100 µM (inactive) | – | > 100 µM (inactive) | > 100 µM (inactive) | > 100 µM (inactive) | – | > 100 µM (inactive) | > 100 µM (inactive) | > 100 µM (inactive) | > 100 µM (inactive) | > 100 µM (inactive) | 96.8 µM (inactive) | > 100 µM (inactive) | > 100 µM (inactive) | – | – | – | – |
| CC[n+]1c(/C=C/c2ccc(N(CCCl)CCCl)cc2)ccc2cc(NC(=O)/C=C/c3ccccc3)ccc21 | 10.3 µM (inactive) | 0.807 µM (active) | 2.13 µM (inactive) | 0.39 µM (active) | 0.31 µM (active) | 0.483 µM (active) | 0.482 µM (active) | 0.218 µM (active) | 1.75 µM (inactive) | 0.254 µM (active) | 0.45 µM (active) | 0.578 µM (active) | 0.393 µM (active) | 0.646 µM (active) | 0.251 µM (active) | 0.132 µM (active) | 0.288 µM (active) | 0.32 µM (active) | 0.288 µM (active) | 30.9 µM (inactive) |
| COC(=O)C1=C(c2ccc3c(c2)OCO3)OC(c2cc(OC)c(OC)c(OC)c2)C1 (configuration not stated) | 2.43 µM (inactive) | 6.98 µM (inactive) | 2.12 µM (inactive) | 5.77 µM (inactive) | 2.75 µM (inactive) | 1.57 µM (inactive) | 3.21 µM (inactive) | – | 1.43 µM (inactive) | 4.83 µM (inactive) | 1.5 µM (inactive) | 2.28 µM (inactive) | 1.59 µM (inactive) | 1.81 µM (inactive) | 5.75 µM (inactive) | 2.34 µM (inactive) | – | – | – | – |
| CN(C)/C=N\c1nc(=O)n(C2CCC(CO)O2)cc1F (configuration not stated) | – | > 100 µM (inactive) | > 100 µM (inactive) | 96.6 µM (inactive) | – | > 100 µM (inactive) | > 100 µM (inactive) | > 100 µM (inactive) | > 100 µM (inactive) | > 100 µM (inactive) | > 100 µM (inactive) | > 100 µM (inactive) | > 100 µM (inactive) | – | > 100 µM (inactive) | > 100 µM (inactive) | – | – | – | – |
| O=[N+]([O-])C1Cc2ccccc2OC1c1ccccc1 (configuration not stated) | > 100 µM (inactive) | 66.7 µM (inactive) | 24.1 µM (inactive) | > 100 µM (inactive) | 64.4 µM (inactive) | > 100 µM (inactive) | 92.9 µM (inactive) | 26.6 µM (inactive) | > 100 µM (inactive) | > 100 µM (inactive) | 40.5 µM (inactive) | 96.6 µM (inactive) | 41.9 µM (inactive) | 55.3 µM (inactive) | 83.2 µM (inactive) | 40.6 µM (inactive) | – | – | – | – |
| COc1cc2c(c(OC)c1OC)-c1ccc(OC)c(=O)cc1[C@@H](NC(=O)c1ccccc1)CC2 | < 0.0121 µM (active) | 0.0305 µM (active) | 0.0206 µM (active) | 0.0162 µM (active) | 0.0146 µM (active) | < 0.01 µM (active) | 0.0128 µM (active) | 0.0114 µM (active) | < 0.0103 µM (active) | – | 0.0136 µM (active) | 0.0646 µM (active) | – | < 0.0113 µM (active) | 0.0173 µM (active) | 0.0147 µM (active) | 0.0199 µM (active) | 0.0151 µM (active) | < 0.01 µM (active) | 0.168 µM (active) |
| CC(=O)c1ccc(NC(=O)/C(Cc2ccccn2)=N/NC(=O)C[N+](C)(C)C)cc1 | > 100 µM (inactive) | > 100 µM (inactive) | > 100 µM (inactive) | > 100 µM (inactive) | > 100 µM (inactive) | > 100 µM (inactive) | > 100 µM (inactive) | > 100 µM (inactive) | > 100 µM (inactive) | > 100 µM (inactive) | > 100 µM (inactive) | > 100 µM (inactive) | > 100 µM (inactive) | > 100 µM (inactive) | – | > 100 µM (inactive) | – | – | – | – |
| O=C1C(Br)=C(c2ccccc2)C(c2ccccc2)=C1c1ccccc1 | 16.1 µM (inactive) | 2.55 µM (inactive) | 2.44 µM (inactive) | 6.05 µM (inactive) | 4.28 µM (inactive) | 4.78 µM (inactive) | 3.64 µM (inactive) | 0.753 µM (active) | 2.61 µM (inactive) | 1.99 µM (inactive) | 10.9 µM (inactive) | 15.9 µM (inactive) | 11.4 µM (inactive) | 2.38 µM (inactive) | 1.69 µM (inactive) | 3.36 µM (inactive) | 13.2 µM (inactive) | 1.79 µM (inactive) | 3.82 µM (inactive) | – |
| CCc1cccc(C(C)C)c1NC(=O)/C(=N\NC(N)=O)C(C(=O)OC)c1cnc2ccccc2n1 (configuration not stated) | > 100 µM (inactive) | 62.7 µM (inactive) | > 100 µM (inactive) | 40.6 µM (inactive) | 40.7 µM (inactive) | 41.6 µM (inactive) | 24.8 µM (inactive) | 24.9 µM (inactive) | 20.8 µM (inactive) | 87.7 µM (inactive) | 58.5 µM (inactive) | > 100 µM (inactive) | 51.3 µM (inactive) | 26 µM (inactive) | – | 40.2 µM (inactive) | – | – | – | – |
| O=C(Cc1nc2ccccc2s1)Nc1cccc(C(F)(F)F)c1 | 5.3 µM (inactive) | 13.6 µM (inactive) | 16.7 µM (inactive) | 15.6 µM (inactive) | 13 µM (inactive) | 20.4 µM (inactive) | 14.8 µM (inactive) | 14.1 µM (inactive) | 17.6 µM (inactive) | 16.2 µM (inactive) | 16.2 µM (inactive) | 29.5 µM (inactive) | 16.9 µM (inactive) | 12.6 µM (inactive) | – | – | – | – | – | – |
